Earlier results on one compound are cited in US11028348B2, “Naturally-derived antimicrobial cleaning solutions” (ProNatural Brands LLC, priority 2014, dated 2021).

The structures appear in SMILES notation.

The conditions of this data set: standard pKa.

`O=C(O)CC(O)(CC(=O)O)C(=O)O` [citric acid]: the pKa1 is 3.1, the pKa2 was 4.8 and the pKa3 is given as 6.4.
